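Interpolation was linear, between the two tested concentrations surrounding the appropriate level; five concentrations were tested over 48 hours in 96-well plates. Here, GI50 denotes the concentration required for 50% inhibition of growth.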 Activity calls are given as the source filed them. Rule as the data show it: active = GI50 up to about 1.1 µM and inactive = higher. Where a SMILES comes first, the peptide text is derived from it. [ ]: non-standard residue; d: D form. The star is where a group is joined. ξ: configuration not given here. ξF = NC(Cc1ccccc1)C(=O)O; Cbz = O=C(OCc1ccccc1)*; Aib = CC(C)(N)C(=O)O
Experiments:
Assay in all cases: NCI anticancer screen, dose series, 48 h
NCI/ADR-RES = test system: NCI/ADR-RES
SK-MEL-28 = test system: SK-MEL-28
NCI-H23 = test system: NCI-H23
OVCAR-8 = test system: OVCAR-8
HOP-92 = test system: HOP-92
MOLT-4 = test system: MOLT-4
OVCAR-3 = test system: OVCAR-3
SNB-75 = test system: SNB-75
HT-29 = test system: HT-29
IGROV-1 = test system: IGROV-1
HCT-15 = test system: HCT-15
CAKI-1 = test system: CAKI-1
SNB-19 = test system: SNB-19
SW-620 = test system: SW-620
UO-31 = test system: UO-31
HL-60 = test system: HL-60
HOP-62 = test system: HOP-62
SF-268 = test system: SF-268
EKVX = test system: EKVX
ACHN = test system: ACHN

Compound	GI50 (NCI/ADR-RES)	GI50 (SK-MEL-28)	GI50 (NCI-H23)	GI50 (OVCAR-8)	GI50 (HOP-92)	GI50 (MOLT-4)	GI50 (OVCAR-3)	GI50 (SNB-75)	GI50 (HT-29)	GI50 (IGROV-1)	GI50 (HCT-15)	GI50 (CAKI-1)	GI50 (SNB-19)	GI50 (SW-620)	GI50 (UO-31)	GI50 (HL-60)	GI50 (HOP-62)	GI50 (SF-268)	GI50 (EKVX)	GI50 (ACHN)
O=NN(CCF)C(=O)NC1CCSCC1	> 100 µM (inactive)	> 100 µM (inactive)	> 100 µM (inactive)	> 100 µM (inactive)	> 100 µM (inactive)	> 100 µM (inactive)	> 100 µM (inactive)	> 100 µM (inactive)	> 100 µM (inactive)	> 100 µM (inactive)	> 100 µM	> 100 µM (inactive)	> 100 µM (inactive)	> 100 µM (inactive)	> 100 µM (inactive)	> 100 µM (inactive)	1 µM (active)	> 100 µM (inactive)	–	–
COc1nc(O)c(N)c(NC2OC(CO)C(O)C(O)C2O)n1 (stereo not drawn)	> 100 µM (inactive)	> 100 µM (inactive)	> 100 µM (inactive)	> 100 µM (inactive)	> 100 µM (inactive)	> 100 µM (inactive)	> 100 µM (inactive)	> 100 µM (inactive)	> 100 µM (inactive)	> 100 µM (inactive)	> 100 µM	–	> 100 µM (inactive)	> 100 µM (inactive)	> 100 µM (inactive)	> 82.8 µM (inactive)	> 100 µM (inactive)	> 100 µM (inactive)	> 100 µM (inactive)	–
COc1ccccc1C1C(C(=O)O)=C(CO)Oc2cc3c(cc21)OCO3 (stereo not drawn)	–	> 100 µM (inactive)	> 100 µM (inactive)	> 100 µM (inactive)	> 100 µM (inactive)	> 100 µM (inactive)	> 100 µM (inactive)	> 100 µM (inactive)	> 100 µM (inactive)	> 100 µM (inactive)	> 100 µM	> 100 µM (inactive)	> 100 µM (inactive)	> 100 µM (inactive)	> 100 µM (inactive)	> 100 µM (inactive)	–	> 100 µM (inactive)	> 100 µM (inactive)	> 100 µM (inactive)
CN(C)C(=S)SCc1ccccc1	> 100 µM (inactive)	> 100 µM (inactive)	> 100 µM (inactive)	> 100 µM (inactive)	88.3 µM (inactive)	–	> 100 µM (inactive)	2.41 µM (inactive)	> 100 µM (inactive)	> 100 µM (inactive)	> 100 µM	> 100 µM (inactive)	> 100 µM (inactive)	> 100 µM (inactive)	53.7 µM (inactive)	99.1 µM (inactive)	> 100 µM (inactive)	> 100 µM (inactive)	> 100 µM (inactive)	–
Cc1ccccc1NC(=O)CC(=O)N1N=C(N2c3ccccc3Sc3ccccc32)CC1c1ccccc1 (stereo not drawn)	–	> 100 µM (inactive)	> 100 µM (inactive)	> 100 µM (inactive)	> 100 µM (inactive)	> 100 µM (inactive)	> 100 µM (inactive)	> 100 µM (inactive)	> 100 µM (inactive)	> 100 µM (inactive)	> 100 µM	> 100 µM (inactive)	> 100 µM (inactive)	> 100 µM (inactive)	> 100 µM (inactive)	–	> 100 µM (inactive)	> 100 µM (inactive)	> 100 µM (inactive)	> 100 µM (inactive)
CCCOC(=O)CCC(NC(=O)c1ccc(Nc2nc3ccccc3nc2-c2cccs2)cc1)C(=O)OCCC (stereo not drawn)	–	> 100 µM (inactive)	> 100 µM (inactive)	> 100 µM (inactive)	29.2 µM (inactive)	2.31 µM (inactive)	> 100 µM (inactive)	–	–	55.1 µM (inactive)	> 100 µM	> 100 µM (inactive)	> 100 µM (inactive)	> 100 µM (inactive)	95.9 µM (inactive)	–	> 100 µM (inactive)	> 100 µM (inactive)	> 100 µM (inactive)	> 100 µM (inactive)
Cc1cc(Cl)ccc1/N=C1/NC(=O)C(CC(=O)Nc2cccc(C)c2C)S1 (stereo not drawn)	–	30.2 µM (inactive)	18.2 µM (inactive)	26.5 µM (inactive)	1.41 µM (inactive)	24.5 µM (inactive)	31.2 µM (inactive)	19.9 µM (inactive)	37.8 µM (inactive)	34.8 µM (inactive)	28.4 µM	23.6 µM (inactive)	26.8 µM (inactive)	35.1 µM (inactive)	21.6 µM (inactive)	–	24 µM (inactive)	26 µM (inactive)	37.8 µM (inactive)	26 µM (inactive)
Cc1cccc2c1Sc1ccccc1C2NC(=O)CN(C)C (stereo not drawn)	–	52.4 µM (inactive)	> 100 µM (inactive)	> 100 µM (inactive)	–	59.7 µM (inactive)	–	16 µM (inactive)	69.2 µM (inactive)	> 100 µM (inactive)	> 100 µM	–	> 100 µM (inactive)	> 100 µM (inactive)	33.6 µM (inactive)	74.5 µM (inactive)	> 100 µM (inactive)	> 100 µM (inactive)	> 100 µM (inactive)	43.4 µM (inactive)
Nc1nc(=S)[nH]c2nc3c(c(-c4ccccc4)c12)CCCC3	> 100 µM (inactive)	–	> 100 µM (inactive)	> 100 µM (inactive)	–	> 100 µM (inactive)	> 100 µM (inactive)	34.8 µM (inactive)	> 100 µM (inactive)	> 100 µM (inactive)	> 100 µM	> 100 µM (inactive)	> 100 µM (inactive)	> 100 µM (inactive)	> 100 µM (inactive)	> 100 µM (inactive)	> 100 µM (inactive)	> 100 µM (inactive)	50 µM (inactive)	> 100 µM (inactive)
COC1CCC(OS(C)(=O)=O)CO1 (stereo not drawn)	–	> 100 µM (inactive)	> 100 µM (inactive)	–	> 100 µM (inactive)	20.6 µM (inactive)	> 100 µM (inactive)	60.5 µM (inactive)	> 100 µM (inactive)	> 100 µM (inactive)	–	–	> 100 µM (inactive)	–	> 100 µM (inactive)	35 µM (inactive)	> 100 µM (inactive)	86.7 µM (inactive)	–	> 100 µM (inactive)
C=CC(Br)(CBr)CCC(Cl)C(C)C (stereo not drawn)	–	1.58 µM (inactive)	2.74 µM (inactive)	–	2.04 µM (inactive)	1.06 µM (active)	2.02 µM (inactive)	1.49 µM (inactive)	1.66 µM (inactive)	2.5 µM (inactive)	–	2.62 µM (inactive)	2.2 µM (inactive)	1.69 µM (inactive)	1.64 µM (inactive)	0.561 µM (active)	1.8 µM (inactive)	1.56 µM (inactive)	9.66 µM (inactive)	2.53 µM (inactive)
O=Cc1c(Br)[nH]c2ccccc12	> 100 µM (inactive)	> 100 µM (inactive)	> 100 µM (inactive)	> 100 µM (inactive)	29.6 µM (inactive)	27 µM (inactive)	> 100 µM (inactive)	28.8 µM (inactive)	> 100 µM (inactive)	> 81.1 µM (inactive)	> 100 µM	–	–	> 100 µM (inactive)	39.9 µM (inactive)	9.55 µM (inactive)	> 100 µM (inactive)	> 100 µM (inactive)	> 100 µM (inactive)	–
NC(=O)OCC1=C(COC(N)=O)C(=O)c2c(O)ccc(O)c2C1=O	–	> 100 µM (inactive)	> 100 µM (inactive)	> 100 µM (inactive)	> 100 µM (inactive)	55.8 µM (inactive)	> 100 µM (inactive)	> 100 µM (inactive)	> 100 µM (inactive)	> 100 µM (inactive)	> 100 µM	> 100 µM (inactive)	–	61.1 µM (inactive)	> 100 µM (inactive)	45.2 µM (inactive)	> 100 µM (inactive)	> 100 µM (inactive)	> 100 µM (inactive)	> 100 µM (inactive)
O=C(NCCCNC(=O)c1ccc2cc(O)c(O)cc2c1)c1ccc2cc(O)c(O)cc2c1	> 100 µM (inactive)	40.4 µM (inactive)	22.5 µM (inactive)	35.2 µM (inactive)	14.2 µM (inactive)	30 µM (inactive)	–	22.8 µM (inactive)	23.4 µM (inactive)	35.6 µM (inactive)	19.9 µM	> 100 µM (inactive)	18.3 µM (inactive)	43 µM (inactive)	34.1 µM (inactive)	19.2 µM (inactive)	25.1 µM (inactive)	28.8 µM (inactive)	27.9 µM (inactive)	23.9 µM (inactive)
O=c1c2cc(I)ccc2nc(-c2cccs2)n1Nc1ccccc1	22.3 µM (inactive)	17.9 µM (inactive)	19.9 µM (inactive)	2.08 µM (inactive)	–	8.17 µM (inactive)	1.16 µM (inactive)	–	3.21 µM (inactive)	1.39 µM (inactive)	5.78 µM	11 µM (inactive)	23.5 µM (inactive)	2.72 µM (inactive)	0.889 µM (active)	0.416 µM (active)	18.8 µM (inactive)	14.1 µM (inactive)	13.5 µM (inactive)	0.675 µM (active)
COC(=O)C(C)(C)NC(=O)C(Cc1ccccc1)NC(=O)C(C)(C)NC(=O)OCc1ccccc1 (stereo not drawn) (Cbz-[Aib]-[ξF]-[Aib]-OMe)	> 100 µM (inactive)	> 100 µM (inactive)	–	> 100 µM (inactive)	–	> 100 µM (inactive)	> 100 µM (inactive)	–	> 100 µM (inactive)	> 100 µM (inactive)	> 100 µM	> 100 µM (inactive)	> 100 µM (inactive)	> 100 µM (inactive)	> 100 µM (inactive)	> 100 µM (inactive)	> 100 µM (inactive)	> 100 µM (inactive)	> 100 µM (inactive)	> 100 µM (inactive)

Source: ChEMBL document CHEMBL1201862, “PubChem BioAssay data set” (2004)
